The subject of the data set is rodent lifetime carcinogenesis bioassay, tumor incidence TD50. Nature of the data set: carcinogenic potency in animals, long-term in vivo studies, CPDB compilation (AID 1745844).

Calls of active or inactive are those of the source. The rule behind the calls is not given here.

Turning to `CCCN(CCC)S(=O)(=O)c1ccc(C(=O)O)cc1`, the TD50 (in general, the 50% point of the dose-response relation for the toxic effect studied) by setting is: (mouse, strain B6C3F1, females, by gavage, site: any site (literature study), lesion: several types, types named in the paper, dosed 103 weeks, study length 104 weeks) 498 mg/kg/day; (mouse, strain B6C3F1, females, by gavage, site: liver, lesion: hepatocellular adenoma + hepatocellular carcinoma + neoplastic nodule, dosed 103 weeks, study length 104 weeks) 540 mg/kg/day; (mouse, strain B6C3F1, females, by gavage, site: liver, lesion: hepatocellular adenoma + hepatocellular carcinoma, dosed 103 weeks, study length 104 weeks) 540 mg/kg/day; (mouse, strain B6C3F1, females, by gavage, site: liver, lesion: hepatocellular adenoma, dosed 103 weeks, study length 104 weeks) 561 mg/kg/day; (mouse, strain B6C3F1, females, by gavage, site: lung, lesion: alveolar/bronchiolar adenoma + alveolar/bronchiolar carcinoma, dosed 103 weeks, study length 104 weeks) 1980 mg/kg/day; (mouse, strain B6C3F1, males, by gavage, site: any site (literature study), lesion: several types, types named in the paper, dosed 103 weeks, study length 104 weeks) 276 mg/kg/day. Also, the TD50 is 731 mg/kg/day (mouse, strain B6C3F1, males, by gavage, site: liver, lesion: hepatocellular adenoma + hepatocellular carcinoma + neoplastic nodule, dosed 103 weeks, study length 104 weeks); 2320 mg/kg/day (mouse, strain B6C3F1, males, by gavage, site: lung, lesion: alveolar/bronchiolar adenoma + alveolar/bronchiolar carcinoma, dosed 103 weeks, study length 104 weeks); 2130 mg/kg/day (inactive) (mouse, strain B6C3F1, males, by gavage, site: subcutaneous tissue, lesion: fibroma, dosed 103 weeks, study length 104 weeks); 1540 mg/kg/day (inactive) (rat, strain Fischer 344, females, by gavage, site: any site (literature study), lesion: several types, types named in the paper, dosed 103 weeks, study length 104 weeks); 1790 mg/kg/day (rat, strain Fischer 344, females, by gavage, site: liver, lesion: hepatocellular adenoma + hepatocellular carcinoma + neoplastic nodule, dosed 103 weeks, study length 104 weeks); 296 mg/kg/day (rat, strain Fischer 344, males, by gavage, site: any site (literature study), lesion: several types, types named in the paper, dosed 103 weeks, study length 104 weeks). Further, the TD50 (rat, strain Fischer 344, males, by gavage, site: testis, lesion: interstitial-cell adenoma, bilateral + interstitial-cell adenoma, dosed 103 weeks, study length 104 weeks) is 212 mg/kg/day (inactive).
For the molecule `CCOc1nc2cccc(C(=O)OC(C)OC(=O)OC3CCCCC3)c2n1Cc1ccc(-c2ccccc2-c2nn[nH]n2)cc1` (centres undefined), the TD50 (rat, strain Fischer 344/Jcl, females, in feed, site: any site (literature study), lesion: several types, types named in the paper, dosed 104 weeks, study length 104 weeks) is 11200 mg/kg/day (inactive). Besides, the carcinogen call reads like this: (rat, strain Fischer 344/Jcl, females, in feed, site: liver, lesion: hepatocellular adenoma, dosed 104 weeks, study length 104 weeks) “negative (inactive)”; (rat, strain Fischer 344/Jcl, males, in feed, site: any site (literature study), lesion: several types, types named in the paper, dosed 104 weeks, study length 104 weeks) “negative (inactive)”; (rat, strain Fischer 344/Jcl, males, in feed, site: liver, lesion: hepatocellular adenoma, dosed 104 weeks, study length 104 weeks) “negative (inactive)”.
Take `Cc1c(N(C)C)c(=O)n(-c2ccccc2)n1C`: the carcinogen call (mouse, strain B6C3F1, females, in drinking water, site: any site (literature study), lesion: one or several types, types not named, dosed 100 weeks, study length 104 weeks) was “negative (inactive)”; the carcinogen call (mouse, strain B6C3F1, females, in drinking water, site: liver, lesion: hepatocellular carcinoma, dosed 100 weeks, study length 104 weeks) is “negative (inactive)”; the carcinogen call (mouse, strain B6C3F1, females, in drinking water, site: lung, lesion: alveolar/bronchiolar adenoma, dosed 100 weeks, study length 104 weeks) was “negative (inactive)”; the carcinogen call (mouse, strain B6C3F1, males, in drinking water, site: lung, lesion: alveolar/bronchiolar carcinoma, dosed 100 weeks, study length 104 weeks) is “negative (inactive)”. For the same molecule, the TD50 is, setting by setting: (mouse, strain B6C3F1, females, in drinking water, site: liver, lesion: hepatocellular adenoma, dosed 100 weeks, study length 104 weeks) 6150 mg/kg/day (inactive); (mouse, strain B6C3F1, females, in drinking water, site: lung, lesion: alveolar/bronchiolar carcinoma, dosed 100 weeks, study length 104 weeks) 6540 mg/kg/day (inactive); (mouse, strain B6C3F1, males, in drinking water, site: any site (literature study), lesion: one or several types, types not named, dosed 100 weeks, study length 104 weeks) 156 mg/kg/day (inactive); (mouse, strain B6C3F1, males, in drinking water, site: liver, lesion: hepatocellular adenoma, dosed 100 weeks, study length 104 weeks) 683 mg/kg/day (inactive); (mouse, strain B6C3F1, males, in drinking water, site: liver, lesion: hepatocellular carcinoma, dosed 100 weeks, study length 104 weeks) 5390 mg/kg/day (inactive); (mouse, strain B6C3F1, males, in drinking water, site: lung, lesion: alveolar/bronchiolar adenoma, dosed 100 weeks, study length 104 weeks) 1480 mg/kg/day (inactive).
`O=Nc1ccc(Nc2ccccc2)cc1`: the TD50 runs as follows: (mouse, strain B6C3F1, females, in feed, site: any site (literature study), lesion: several types, types named in the paper, dosed 53 weeks, study length 92 weeks) 2170 mg/kg/day (inactive); (mouse, strain B6C3F1, females, in feed, site: liver, lesion: hepatocellular adenoma + hepatocellular carcinoma + neoplastic nodule, dosed 53 weeks, study length 92 weeks) 2250 mg/kg/day; (mouse, strain B6C3F1, females, in feed, site: lung, lesion: alveolar/bronchiolar adenoma + alveolar/bronchiolar carcinoma, dosed 53 weeks, study length 92 weeks) 5410 mg/kg/day; (mouse, strain B6C3F1, males, in feed, site: any site (literature study), lesion: several types, types named in the paper, dosed 53 weeks, study length 92 weeks) 260 mg/kg/day; (mouse, strain B6C3F1, males, in feed, site: liver, lesion: hepatocellular adenoma + hepatocellular carcinoma + neoplastic nodule, dosed 53 weeks, study length 92 weeks) 340 mg/kg/day; (mouse, strain B6C3F1, males, in feed, site: liver, lesion: hepatocellular adenoma + hepatocellular carcinoma, dosed 53 weeks, study length 92 weeks) 340 mg/kg/day. Moreover, the TD50 was 661 mg/kg/day (mouse, strain B6C3F1, males, in feed, site: liver, lesion: hepatocellular carcinoma, dosed 53 weeks, study length 92 weeks); 3520 mg/kg/day (mouse, strain B6C3F1, males, in feed, site: lung, lesion: alveolar/bronchiolar adenoma + alveolar/bronchiolar carcinoma, dosed 53 weeks, study length 92 weeks); 1210 mg/kg/day (rat, strain Fischer 344, females, in feed, site: liver, lesion: hepatocellular adenoma + hepatocellular carcinoma + neoplastic nodule, dosed 78 weeks, study length 105 weeks); 201 mg/kg/day (rat, strain Fischer 344, males, in feed, site: liver, lesion: hepatocellular adenoma + hepatocellular carcinoma + neoplastic nodule, dosed 78 weeks, study length 105 weeks); 201 mg/kg/day (rat, strain Fischer 344, males, in feed, site: liver, lesion: hepatocellular carcinoma + neoplastic nodule, dosed 78 weeks, study length 105 weeks). Besides, the carcinogen call (rat, strain Fischer 344, females, in feed, site: any site (literature study), lesion: several types, types named in the paper, dosed 78 weeks, study length 105 weeks) was “negative (inactive)”.
For the molecule `CCOC(=O)CC(SP(=O)(OC)OC)C(=O)OCC` (centres undefined), the carcinogen call reads like this: (mouse, strain B6C3F1, females, in feed, site: any site (literature study), lesion: several types, types named in the paper, dosed 103 weeks, study length 103 weeks) “negative (inactive)”; (rat, strain Fischer 344, males, in feed, site: any site (literature study), lesion: several types, types named in the paper, dosed 103 weeks, study length 104 weeks) “negative (inactive)”. The TD50 runs as follows: (mouse, strain B6C3F1, females, in feed, site: lung, lesion: alveolar/bronchiolar adenoma + alveolar/bronchiolar carcinoma, dosed 103 weeks, study length 103 weeks) 2760 mg/kg/day; (mouse, strain B6C3F1, males, in feed, site: any site (literature study), lesion: several types, types named in the paper, dosed 103 weeks, study length 103 weeks) 472 mg/kg/day (inactive); (mouse, strain B6C3F1, males, in feed, site: liver, lesion: hepatocellular adenoma + hepatocellular carcinoma + neoplastic nodule, dosed 103 weeks, study length 103 weeks) 579 mg/kg/day; (mouse, strain B6C3F1, males, in feed, site: lung, lesion: alveolar/bronchiolar adenoma + alveolar/bronchiolar carcinoma, dosed 103 weeks, study length 103 weeks) 3230 mg/kg/day; (rat, strain Fischer 344, females, in feed, site: thyroid gland, lesion: c-cell adenoma + c-cell carcinoma, dosed 103 weeks, study length 104 weeks) 296 mg/kg/day (inactive); (rat, strain Fischer 344, males, in feed, site: liver, lesion: hepatocellular adenoma + hepatocellular carcinoma + neoplastic nodule, dosed 103 weeks, study length 104 weeks) 1560 mg/kg/day.
Turning to `FCC(F)(F)F`, the carcinogen call (mouse, strain B6C3F1, females, inhaled, site: liver, lesion: hepatocellular adenoma, dosed 104 weeks, study length 104 weeks) is “negative (inactive)”; the carcinogen call (mouse, strain B6C3F1, females, inhaled, site: liver, lesion: hepatocellular carcinoma, dosed 104 weeks, study length 104 weeks) was “negative (inactive)”; the carcinogen call (mouse, strain B6C3F1, females, inhaled, site: lung, lesion: alveolar/bronchiolar tumor, dosed 104 weeks, study length 104 weeks) is “negative (inactive)”; the carcinogen call (mouse, strain B6C3F1, males, inhaled, site: lung, lesion: alveolar/bronchiolar tumor, dosed 104 weeks, study length 104 weeks) was “negative (inactive)”; the carcinogen call (rat, strain Han-Ibm Wistar, males, inhaled, site: testis, lesion: interstitial-cell tumor, dosed 108 weeks, study length 108 weeks) was “negative (inactive)”. Moreover, the TD50 was 1.5e+06 mg/kg/day (inactive) (mouse, strain B6C3F1, males, inhaled, site: liver, lesion: hepatocellular adenoma, dosed 104 weeks, study length 104 weeks); 260000 mg/kg/day (inactive) (mouse, strain B6C3F1, males, inhaled, site: liver, lesion: hepatocellular carcinoma, dosed 104 weeks, study length 104 weeks); 29900 mg/kg/day (rat, strain Alpk:APfSD, males, inhaled, site: testis, lesion: Leydig-cell adenoma, dosed 104 weeks, study length 104 weeks); 2.8e+06 mg/kg/day (inactive) (rat, strain Han-Ibm Wistar, females, inhaled, site: liver, lesion: hepatocellular carcinoma, dosed 108 weeks, study length 108 weeks); 70100 mg/kg/day (inactive) (rat, strain Han-Ibm Wistar, males, inhaled, site: liver, lesion: hepatocellular adenoma, dosed 108 weeks, study length 108 weeks); 140000 mg/kg/day (inactive) (rat, strain Han-Ibm Wistar, males, inhaled, site: liver, lesion: hepatocellular carcinoma, dosed 108 weeks, study length 108 weeks).
Turning to `CCCNN`, the TD50 (mouse, strain Swiss albino, females, in drinking water, site: lung, lesion: adenocarcinoma, dosed 99 weeks, study length 99 weeks) worked out at 109 mg/kg/day; the TD50 (mouse, strain Swiss albino, females, in drinking water, site: lung, lesion: adenoma, dosed 99 weeks, study length 99 weeks) was 42.7 mg/kg/day; the TD50 (mouse, strain Swiss albino, females, in drinking water, site: lung, lesion: several types, types named in the paper, dosed 99 weeks, study length 99 weeks) is 41.4 mg/kg/day; the TD50 (mouse, strain Swiss albino, males, in drinking water, site: liver, lesion: liver-cell carcinoma, dosed 93 weeks, study length 93 weeks) was 102 mg/kg/day (inactive); the TD50 (mouse, strain Swiss albino, males, in drinking water, site: liver, lesion: several types, types named in the paper, dosed 93 weeks, study length 93 weeks) amounted to 80.8 mg/kg/day; the TD50 (mouse, strain Swiss albino, males, in drinking water, site: lung, lesion: adenoma, dosed 93 weeks, study length 93 weeks) is 41.3 mg/kg/day. Besides, the TD50 (mouse, strain Swiss albino, males, in drinking water, site: lung, lesion: several types, types named in the paper, dosed 93 weeks, study length 93 weeks) is 50.5 mg/kg/day.
Turning to `O=P(=O)O`, under “rat, strain F344/DuCrj, females, in feed, site: any site (literature study), lesion: several types, types named in the paper, dosed 108 weeks, study length 108 weeks”, the TD50 was 5100 mg/kg/day (inactive). In addition, the carcinogen call (rat, strain F344/DuCrj, females, in feed, site: liver, lesion: one or several types, types not named, dosed 108 weeks, study length 108 weeks) is “negative (inactive)”; the carcinogen call (rat, strain F344/DuCrj, males, in feed, site: any site (literature study), lesion: several types, types named in the paper, dosed 108 weeks, study length 108 weeks) was “negative (inactive)”; the carcinogen call (rat, strain F344/DuCrj, males, in feed, site: liver, lesion: one or several types, types not named, dosed 108 weeks, study length 108 weeks) was “negative (inactive)”.
